Where a chain is given by its changes, count along the chain named. Values belong to the compound of their own block, whether it stands above or below them.
Assays:
[1] = target: T1, hSGLT1 wild-type (Homo sapiens, UniProt P13866); experiment: SGLT current measurement (two electrode voltage clamp) in oocytes, hSGLT1 wild-type; format: cell-based; settings: inhibition of αMDG currents (100 mM NaCl) or capacitive currents, 22 °C
T1 construct: expressed in transfected cells; host or cells: Xenopus laevis oocytes injected with cRNA
T1 sequence (P13866 1-664): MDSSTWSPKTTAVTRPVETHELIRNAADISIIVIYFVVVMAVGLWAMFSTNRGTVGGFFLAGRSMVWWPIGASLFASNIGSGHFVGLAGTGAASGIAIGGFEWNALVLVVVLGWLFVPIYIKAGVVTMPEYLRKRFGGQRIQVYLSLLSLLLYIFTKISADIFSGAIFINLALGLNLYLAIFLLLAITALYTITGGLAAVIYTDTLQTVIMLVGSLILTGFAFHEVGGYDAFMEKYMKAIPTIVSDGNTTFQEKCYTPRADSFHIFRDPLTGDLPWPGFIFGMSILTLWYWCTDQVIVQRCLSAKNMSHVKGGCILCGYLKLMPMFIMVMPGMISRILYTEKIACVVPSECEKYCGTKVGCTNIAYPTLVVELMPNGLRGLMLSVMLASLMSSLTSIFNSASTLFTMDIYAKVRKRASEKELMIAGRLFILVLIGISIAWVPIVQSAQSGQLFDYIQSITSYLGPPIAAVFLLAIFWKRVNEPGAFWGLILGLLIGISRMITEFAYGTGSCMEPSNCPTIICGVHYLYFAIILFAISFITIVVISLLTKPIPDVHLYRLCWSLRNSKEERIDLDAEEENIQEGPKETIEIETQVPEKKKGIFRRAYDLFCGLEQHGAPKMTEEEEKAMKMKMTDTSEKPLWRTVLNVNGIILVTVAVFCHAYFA
Experimental: (§1) Xenopus laevis (Nasco) oocytes (V–VI) were prepared as previously described[20] and injected with 50 nl of cRNA (1 μg/μl). […] Briefly, oocytes were incubated for 30 min in the presence of 50 μM αMDG (5 μM [^14C]αMDG) in a buffer containing (in mM) 100 NaCl, 2 KCl, 1 MgCl2, 1 CaCl2, and 10 N-(2-hydroxyethyl)piperazine-N′-(2-ethanesulfonic acid) (HEPES)/Tris (pH 7.5). After incubation, oocytes were rinsed thoroughly with ice-cold buffer containing (mM) 100 choline Cl^–, 2 KCl, 1 MgCl2, 1 CaCl2, and 10 HEPES/Tris (pH 7.5), individually lysed with 5% sodium dodecyl sulfate, and assayed for radioactivity.
(§2) Injected oocytes were incubated at 18 °C, and after 3–4 days, two electrode voltage clamp experiments were performed as previously described. Briefly, SGLT inward glucose currents were measured as a function of the external Na^+ (0–100 mM NaCl), sugar (0–100 mM αMDG), and inhibitors (0.001–100 μM). Steady-state and hSGLT1 capacitive currents were recorded using voltage steps from a holding voltage, Vh of −60 mV, to voltages in the range of −180 to +50 mV in 20 mV increments. The apparent affinity of αMDG, K0.5, was estimated from plots of the inward current as a function of the external αMDG concentration. […] The Na^+-to-αMDG stoichiometry was determined from the reversal potential measurements using the Gibbs free energy as previously described. […]

[2] = target: T2, hSGLT1 T395A (Homo sapiens, UniProt P13866, T395A); experiment: SGLT current measurement in oocytes, hSGLT1 T395A; format: cell-based; settings: effect on αMDG currents in 30 mM αMDG, 22 °C
T2 construct: expressed in transfected cells; host or cells: Xenopus laevis oocytes injected with cRNA
T2 sequence (P13866 1-664 T395A): T1 sequence (P13866 1-664) with T395A
Experimental: as §1, §2

[3] = target: T3, hSGLT2 A395T (Homo sapiens, UniProt P31639, A395T); experiment: cell-based; settings: poor expression; n = 3 oocytes (n = 2 for dapa-aglycon)
T3 construct: expressed in transfected cells; host or cells: Xenopus laevis oocytes injected with hSGLT2 A395T cRNA and MAP17 cRNA
T3 sequence (P31639 whole entry A395T, one chain of several): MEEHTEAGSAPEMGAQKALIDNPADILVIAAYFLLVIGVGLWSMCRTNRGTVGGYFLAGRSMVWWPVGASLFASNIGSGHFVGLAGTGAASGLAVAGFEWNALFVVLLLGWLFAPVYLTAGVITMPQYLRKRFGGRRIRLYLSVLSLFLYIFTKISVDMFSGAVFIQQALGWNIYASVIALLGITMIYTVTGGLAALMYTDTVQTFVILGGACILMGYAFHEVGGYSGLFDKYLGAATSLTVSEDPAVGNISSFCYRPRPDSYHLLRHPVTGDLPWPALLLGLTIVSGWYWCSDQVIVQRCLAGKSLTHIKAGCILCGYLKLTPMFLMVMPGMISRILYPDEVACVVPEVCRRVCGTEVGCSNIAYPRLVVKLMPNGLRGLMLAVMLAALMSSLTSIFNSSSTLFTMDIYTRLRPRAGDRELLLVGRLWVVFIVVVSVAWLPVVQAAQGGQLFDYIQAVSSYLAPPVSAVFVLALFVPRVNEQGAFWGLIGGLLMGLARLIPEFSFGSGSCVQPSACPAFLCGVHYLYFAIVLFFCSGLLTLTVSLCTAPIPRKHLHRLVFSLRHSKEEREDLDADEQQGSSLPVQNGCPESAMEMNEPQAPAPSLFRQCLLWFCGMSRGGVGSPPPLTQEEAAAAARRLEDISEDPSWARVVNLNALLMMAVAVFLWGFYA
Experimental: as §1
(§3) Injected oocytes were incubated at 18 °C, and after 3–4 days, two electrode voltage clamp experiments were performed as previously described. Briefly, SGLT inward glucose currents were measured as a function of the external Na^+ (0–100 mM NaCl), sugar (0–100 mM αMDG), and inhibitors (0.001–100 μM). Steady-state and hSGLT1 capacitive currents were recorded using voltage steps from a holding voltage, Vh of −60 mV, to voltages in the range of −180 to +50 mV in 20 mV increments. The apparent affinity of αMDG, K0.5, was estimated from plots of the inward current as a function of the external αMDG concentration. Under our experimental conditions, K0.5 is a close approximation of the αMDG binding constant to the Na^+-bound outward conformation of SGLT. The apparent affinity for Na^+, K0.5, was estimated from plots of the αMDG inward current as a function of external Na^+ concentration. For hSGLT1 the interpretation of K0.5 is more complex owing to the presence of two Na^+ binding sites. In this case, the K0.5 is a lumped coefficient for Na^+ binding to the two sites in the outward-facing hSGLT1 conformation. […] The Na^+-to-αMDG stoichiometry was determined from the reversal potential measurements using the Gibbs free energy as previously described. The stoichiometry determinations were reinforced by estimates of αMDG and Na^+ Hill coefficients, and in some cases, by measurement of ^22Na and [^14C]αMDG uptakes under voltage clamp, [21].

[4] = target: T4, hSGLT2 wild-type (Homo sapiens, UniProt P31639); experiment: SGLT current measurement in oocytes, hSGLT2 wild-type (MAP17 co-injected); format: cell-based; parameters: expressed in transfected cells; host or cells: Xenopus laevis oocytes injected with hSGLT2 cRNA and MAP17 cRNA; settings: 22 °C
T4 sequence (P31639 1-672): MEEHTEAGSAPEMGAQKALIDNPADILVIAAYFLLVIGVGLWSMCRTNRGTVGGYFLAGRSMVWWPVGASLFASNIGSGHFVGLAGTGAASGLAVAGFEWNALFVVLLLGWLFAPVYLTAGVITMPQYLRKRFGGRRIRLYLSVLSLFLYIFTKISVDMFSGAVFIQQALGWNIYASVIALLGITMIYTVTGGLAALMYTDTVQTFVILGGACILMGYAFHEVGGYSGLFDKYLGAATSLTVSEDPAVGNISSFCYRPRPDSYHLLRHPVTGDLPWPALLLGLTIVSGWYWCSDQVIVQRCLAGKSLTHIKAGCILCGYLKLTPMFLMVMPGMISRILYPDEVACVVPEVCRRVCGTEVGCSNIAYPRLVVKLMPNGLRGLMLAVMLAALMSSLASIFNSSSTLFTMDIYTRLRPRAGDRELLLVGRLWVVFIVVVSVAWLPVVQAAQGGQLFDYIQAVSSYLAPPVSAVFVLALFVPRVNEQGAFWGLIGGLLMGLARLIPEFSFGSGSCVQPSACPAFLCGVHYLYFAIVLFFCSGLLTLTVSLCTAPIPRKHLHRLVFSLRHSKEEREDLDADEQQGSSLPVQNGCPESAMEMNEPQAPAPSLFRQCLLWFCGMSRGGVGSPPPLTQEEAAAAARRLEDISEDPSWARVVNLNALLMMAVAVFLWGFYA
T4 sequence (Q13113 1-114 partner): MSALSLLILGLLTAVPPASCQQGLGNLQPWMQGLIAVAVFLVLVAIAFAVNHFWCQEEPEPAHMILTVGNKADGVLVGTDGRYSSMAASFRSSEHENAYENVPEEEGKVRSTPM
Experimental: as §1, §3

[5] = target: T5, hSGLT1 D268H (Homo sapiens, UniProt P13866, D268H); experiment: SGLT current measurement in oocytes, hSGLT1 D268H; format: cell-based; settings: D268H vs wild type
T5 construct: expressed in transfected cells; host or cells: Xenopus laevis oocytes injected with cRNA
T5 sequence (P13866 1-664 D268H): T1 sequence (P13866 1-664) with D268H
Experimental: as §1, §2

[6] = target: T4, hSGLT2 wild-type; settings: cited from earlier work

SMILES: CCOc1ccc(Cc2cc(O)ccc2Cl)cc1 [dapa-aglycon]
Ki [1]: 425 ± 50 µM | Ki [2]: 187 ± 80 µM | Ki [3]: > 600 µM | Ki [4]: 110 ± 30 µM

decrease of Ki vs wild-type hSGLT1 [5]: 13 fold
SMILES: CCOc1ccc(Cc2cc([C@@H]3O[C@H](CO)[C@@H](O)[C@H](O)[C@H]3O)ccc2Cl)cc1 [dapagliflozin]
higher potency for hSGLT2 (vs hSGLT1) [6]: > 100 fold

SMILES: O=C(CCc1ccc(O)cc1)c1c(O)cc(O)cc1O [phloretin]
Ki [3]: 129 ± 70 µM | Ki [4]: 27 ± 3 µM

From article PMC6286348, “Inhibitor binding mode and allosteric regulation of Na^+-glucose symporters” (Nature Communications, 2018)
